Tests used:
[1] = tested on: SHR-SP; test: Effect on blood pressure in 6 month old SHR-SP (intraduodenal); type: in vivo, rat; design: DBP (dyastolic blood pressure) / MBP (mean blood pressure) / SBP (systolic blood pressure) / S-D (difference between systolic and diastolic blood pressure): unit not given here; conditions: 15 mg/kg intraduodenal
Excerpt: (§1) Comparative effect of YS 201 on 3 month old rats and 6 month old SHR-SP

[2] = tested on: normotensive rats; test: Effect on blood pressure in normotensive rats (intraduodenal); type: in vivo, rat; conditions: 15 mg/kg intraduodenal; for HR (heart rate): in beats/min (unit assumed)
Protocol: as §1
YS 201 was given by intraduodenal route at 15 mg/kg in normotensive rats.

CCOC(=O)C1=C(C)NC(C)=C(C(=O)OCCN2CCCCC2)C1c1cccc([N+](=O)[O-])c1 (stereo not drawn) [YS 201, ethyl-(β-piperidinoethyl)-2,6-dimethyl-4-(3-nitrophenyl)-1,4-dihydropyridine-3,5-dicarboxylate]
duration of blood pressure effect [1]: 4 h
DBP (dyastolic blood pressure) ([1]; 0 min (baseline)): 17.5
HR (heart rate) ([1]; 0 min (baseline)): 360 beats/min
MBP (mean blood pressure) ([1]; 0 min (baseline)): 20.0
S-D (difference between systolic and diastolic blood pressure) ([1]; 0 min (baseline)): 7.5
SBP (systolic blood pressure) ([1]; 0 min (baseline)): 25.0
DBP (dyastolic blood pressure) ([1]; +1 min): 17.0
HR (heart rate) ([1]; +1 min): 360 beats/min
MBP (mean blood pressure) ([1]; +1 min): 19.3
S-D (difference between systolic and diastolic blood pressure) ([1]; +1 min): 7.0
SBP (systolic blood pressure) ([1]; +1 min): 24.0
DBP (dyastolic blood pressure) ([1]; +2 min): 15.0
HR (heart rate) ([1]; +2 min): 360 beats/min
MBP (mean blood pressure) ([1]; +2 min): 17.5
S-D (difference between systolic and diastolic blood pressure) ([1]; +2 min): 7.5
SBP (systolic blood pressure) ([1]; +2 min): 22.5
DBP (dyastolic blood pressure) ([1]; +5 min): 16.0
HR (heart rate) ([1]; +5 min): 360 beats/min
MBP (mean blood pressure) ([1]; +5 min): 18.7
S-D (difference between systolic and diastolic blood pressure) ([1]; +5 min): 8.0
SBP (systolic blood pressure) ([1]; +5 min): 24.0
DBP (dyastolic blood pressure) ([1]; +10 min): 13.5
HR (heart rate) ([1]; +10 min): 360 beats/min
MBP (mean blood pressure) ([1]; +10 min): 16.2
S-D (difference between systolic and diastolic blood pressure) ([1]; +10 min): 8.0
SBP (systolic blood pressure) ([1]; +10 min): 21.5
DBP (dyastolic blood pressure) ([1]; +15 min): 13.0
HR (heart rate) ([1]; +15 min): 360 beats/min
MBP (mean blood pressure) ([1]; +15 min): 15.7
S-D (difference between systolic and diastolic blood pressure) ([1]; +15 min): 8.0
SBP (systolic blood pressure) ([1]; +15 min): 21.0
DBP (dyastolic blood pressure) ([1]; +30 min): 11.0
HR (heart rate) ([1]; +30 min): 340 beats/min
MBP (mean blood pressure) ([1]; +30 min): 13.7
S-D (difference between systolic and diastolic blood pressure) ([1]; +30 min): 8.0
SBP (systolic blood pressure) ([1]; +30 min): 19.0
DBP (dyastolic blood pressure) ([1]; +60 min): 10.0
HR (heart rate) ([1]; +60 min): 300 beats/min
MBP (mean blood pressure) ([1]; +60 min): 12.0
S-D (difference between systolic and diastolic blood pressure) ([1]; +60 min): 7.0
SBP (systolic blood pressure) ([1]; +60 min): 17.0
DBP (dyastolic blood pressure) ([1]; +120 min): 11.5
HR (heart rate) ([1]; +120 min): 360 beats/min
MBP (mean blood pressure) ([1]; +120 min): 13.5
S-D (difference between systolic and diastolic blood pressure) ([1]; +120 min): 6.0
SBP (systolic blood pressure) ([1]; +120 min): 17.5
DBP (dyastolic blood pressure) ([1]; +180 min): 8.0
HR (heart rate) ([1]; +180 min): 400 beats/min
MBP (mean blood pressure) ([1]; +180 min): 9.8
S-D (difference between systolic and diastolic blood pressure) ([1]; +180 min): 5.5
SBP (systolic blood pressure) ([1]; +180 min): 13.5
DBP (dyastolic blood pressure) ([1]; +240 min): 6.0
HR (heart rate) ([1]; +240 min): 420 beats/min
MBP (mean blood pressure) ([1]; +240 min): 7.5
S-D (difference between systolic and diastolic blood pressure) ([1]; +240 min): 4.5
SBP (systolic blood pressure) ([1]; +240 min): 10.5
DBP (diastolic blood pressure) ([2]; 1 min): 13.0 ± 0.74
MBP (mean blood pressure) ([2]; 1 min): 14.8 ± 0.64
SBP (systolic blood pressure) ([2]; 1 min): 18.4 ± 0.48
HR (heart rate) ([2]; 1 min): 556 ± 9.8
DBP (diastolic blood pressure) ([2]; 2 min): 12.0 ± 0.35
MBP (mean blood pressure) ([2]; 2 min): 13.9 ± 0.28
SBP (systolic blood pressure) ([2]; 2 min): 17.8 ± 0.26
HR (heart rate) ([2]; 2 min): 556 ± 7.5
DBP (diastolic blood pressure) ([2]; 5 min): 10.4 ± 0.33
MBP (mean blood pressure) ([2]; 5 min): 12.7 ± 0.19
SBP (systolic blood pressure) ([2]; 5 min): 17.2 ± 0.26
HR (heart rate) ([2]; 5 min): 564 ± 7.5
reduction of diastolic blood pressure (DBP) ([2]; 5 min after administration): 3.1 KPA
DBP (diastolic blood pressure) ([2]; 10 min): 9.4 ± 0.19
MBP (mean blood pressure) ([2]; 10 min): 11.6 ± 0.15
SBP (systolic blood pressure) ([2]; 10 min): 15.9 ± 0.19
HR (heart rate) ([2]; 10 min): 536 ± 7.5
DBP (diastolic blood pressure) ([2]; 15 min): 9.8 ± 0.34
MBP (mean blood pressure) ([2]; 15 min): 11.7 ± 0.28
SBP (systolic blood pressure) ([2]; 15 min): 15.6 ± 0.29
HR (heart rate) ([2]; 15 min): 524 ± 11.7
DBP (diastolic blood pressure) ([2]; 30 min): 11.3 ± 0.62
MBP (mean blood pressure) ([2]; 30 min): 12.9 ± 0.51
SBP (systolic blood pressure) ([2]; 30 min): 16.0 ± 0.35
HR (heart rate) ([2]; 30 min): 496 ± 22.3
DBP (diastolic blood pressure) ([2]; 60 min): 12.4 ± 0.40
MBP (mean blood pressure) ([2]; 60 min): 14.0 ± 0.35
SBP (systolic blood pressure) ([2]; 60 min): 17.3 ± 0.26
HR (heart rate) ([2]; 60 min): 428 ± 24.2
DBP (diastolic blood pressure) ([2]; 120 min): 13.7 ± 0.87
MBP (mean blood pressure) ([2]; 120 min): 15.3 ± 0.90
SBP (systolic blood pressure) ([2]; 120 min): 18.5 ± 1.06
DBP (diastolic blood pressure) ([2]; TO (baseline)): 13.5 ± 0.55
MBP (mean blood pressure) ([2]; TO (baseline)): 13.2 ± 0.50
SBP (systolic blood pressure) ([2]; TO (baseline)): 18.5 ± 0.47
HR (heart rate) ([2]; TO (baseline)): 432 ± 28.7

From patent US4826856A, “Calcium antagonistic dihydropyridine derivative” (Yason s.r.l., priority 1985, dated 1989)
